Data on five compounds can be found in patent US8889671B2, “Compounds and methods for treating bacterial infections” (AstraZeneca AB, priority 2013, dated 2014).

The test system of one assay is Staphylococcus aureus. The assay can be described thus: Susceptibility testing (MIC) Assay 1, broth microdilution. Particulars: Staphylococcus aureus. In kind it is cell-based.
The subject of another assay is Streptococcus pneumoniae. The assay is described as above. In kind it is cell-based.
The test system of the next assay is Streptococcus pyogenes. Described as above. Type of assay: cell-based. Particulars: Streptococcus pyogenes, Streptococcus pyrgenes, in vivo strain; read-out: Spy MIC.
Another assay concerns Escherichia coli. The assay can be described thus: Susceptibility testing (MIC) Assay 2, broth microdilution. In kind it is cell-based. To be noted: K12, read-out: Eco MIC. In general terms: Broth dilution looks for growth in wells or tubes with falling amounts of substance.
For another assay, the system named is Haemophilus influenzae. The assay is described as above. Type of assay: cell-based. Particulars: ATCC51907, Haemophilus influenzae, ATCC 51907, in vivo strain, read-out: Hin MIC.
A further assay relates to Klebsiella pneumoniae. The assay is described as above. Type of assay: cell-based. Particulars: clinical isolate, mucoid, read-out: Kpn MIC.
A further assay has as its system Pseudomonas aeruginosa. The assay is described as above. Particulars: PAO1, read-out: Pae MIC. Type of assay: cell-based.
For assay [1], the target named is Escherichia coli DNA gyrase A/B tetramer (Escherichia coli (strain K12), UniProt P0AES4+P0AES6). As to the kind of experiment: DNA gyrase supercoiling activity fluorescence polarisation assay. Type of assay: biochemical. Particulars: Eco Gyr FP Mean IC50, E. coli DNA gyrase supercoiling, 0.3 mM ATP. In outline: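 IC50 derived by nonlinear regression from BODIPY-FL fluorescence anisotropy, read 60 min after quenching with labelled triplex-forming probe (pH 3.5). Reaction: 5 nM gyrase tetramer, 130 micrograms/mL relaxed plasmid, 0.3 mM ATP, 4 mM MgCl2, pH 7.5, typically 30 min at ambient temperature, 5-10 compound concentrations.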
For orientation: In fluorescence polarisation assays a small probe gives low polarisation when free and higher when bound to something large.

The mark [2] stands for this setting: Staphylococcus aureus in vivo strain, MSQS, read-out: Sau(d) MIC.
Setting [3] is: in vivo strain, MRQR, read-out: Sau(e) MIC.
[4] abbreviates: in vivo strain (footnote b), read-out: Spn(b) MIC.
Where [5] appears, read: in vivo strain (footnote c), read-out: Spn(c) MIC.

By IC50 is commonly meant the point on the concentration scale where inhibition reaches its midpoint.

In brackets after ≈: the same amount, converted by molar mass. Read-outs that look alike come from different tables or passages of the source. A value given as a limit tells only on which side of the number the result lay.

As to `C[C@@H]1CN2c3c(cc4c(N5C(=O)OC[C@@H]5c5ccncc5)noc4c3F)CC3(C(=O)NC(=O)NC3=O)[C@H]2[C@H](C)O1` [Example 58, (2R,4S,4aS)-11-fluoro-2,4-dimethyl-8-((S)-2-oxo-4-(pyridin-4-yl)oxazolidin-3-yl)-2,4,4a,6-tetrahydro-1H,1′H-spiro[isoxazolo[4,5-g][1,4]oxazino[4,3-a]quinoline-5,5′-pyrimidine]-2′,4′,6′(3′H)-trione], the MIC in the assay with Staphylococcus aureus (setting [2]) came out at 12 µM (≈ 6.61 µg/mL); in the assay on Staphylococcus aureus (setting [3]) it was 50 µM (≈ 27.5 µg/mL); with Staphylococcus aureus (serum, read-out: Sau(f) MIC) it was 50 µM (≈ 27.5 µg/mL); in the assay on Streptococcus pneumoniae (setting [4]), 50 µM (≈ 27.5 µg/mL); in the assay on Streptococcus pneumoniae (setting [5]), 25 µM (≈ 13.8 µg/mL); in the assay with Streptococcus pyogenes, 12 µM (≈ 6.61 µg/mL). Also, the MIC in the assay on Escherichia coli was above 200 µM; in the assay with Haemophilus influenzae it was 6.2 µM (≈ 3.41 µg/mL); in the assay with Klebsiella pneumoniae, above 200 µM; in the assay on Pseudomonas aeruginosa it was above 200 µM. Half-maximal inhibition in assay [1] (IC50) required 1500 nM.

`CO[C@H](C)[C@H]1COC(=O)N1c1noc2c(F)c3c(cc12)CC1(C(=O)NC(=O)NC1=O)[C@H]1[C@H](C)O[C@H](C)CN31` [Example 59]: the MIC in the assay on Staphylococcus aureus (setting [2]) came to 0.78 µM (≈ 0.415 µg/mL); in the assay on Staphylococcus aureus (setting [3]) it was 1.6 µM (≈ 0.85 µg/mL); with Staphylococcus aureus (serum, read-out: Sau(f) MIC), 3.1 µM (≈ 1.65 µg/mL); in the assay on Streptococcus pneumoniae (setting [4]) it was 1.6 µM (≈ 0.85 µg/mL); with Streptococcus pneumoniae (setting [5]) it was 1.6 µM (≈ 0.85 µg/mL); in the assay on Streptococcus pyogenes, 1.6 µM (≈ 0.85 µg/mL). Moreover, the MIC was 100 µM (≈ 53.1 µg/mL) in the assay with Escherichia coli, 1.6 µM (≈ 0.85 µg/mL) with Haemophilus influenzae, above 200 µM in the assay with Klebsiella pneumoniae and above 200 µM in the assay on Pseudomonas aeruginosa. The same compound showed an IC50 in assay [1] of 860 nM.

Take `CO[C@@H](C)[C@@H]1COC(=O)N1c1noc2c(F)c3c(cc12)CC1(C(=O)NC(=O)NC1=O)[C@H]1[C@H](C)O[C@H](C)CN31` [Example 60]: the MIC in the assay with Staphylococcus aureus (setting [2]) came to 0.78 µM (≈ 0.415 µg/mL); in the assay on Staphylococcus aureus (setting [3]) it was 1.6 µM (≈ 0.85 µg/mL); in the assay on Staphylococcus aureus (serum, read-out: Sau(f) MIC) it was 1.6 µM (≈ 0.85 µg/mL); in the assay with Streptococcus pneumoniae (setting [4]), 1.6 µM (≈ 0.85 µg/mL); in the assay on Streptococcus pneumoniae (setting [5]) it was 1.6 µM (≈ 0.85 µg/mL); in the assay on Streptococcus pyogenes, 1.6 µM (≈ 0.85 µg/mL). Besides, the MIC was 100 µM (≈ 53.1 µg/mL) in the assay with Escherichia coli, 1.6 µM (≈ 0.85 µg/mL) in the assay on Haemophilus influenzae, above 200 µM with Klebsiella pneumoniae and above 200 µM with Pseudomonas aeruginosa. Further, the half-maximal inhibitory concentration (IC50) in assay [1] came to 950 nM.

For the compound `C[C@@H]1CN2c3c(cc4c(N5C(=O)OC[C@H]5c5cnccn5)noc4c3F)CC3(C(=O)NC(=O)NC3=O)[C@H]2[C@H](C)O1` [Example 61, (2R,4S,4aS)-11-Fluoro-2,4-dimethyl-8-((R)-2-oxo-4-(pyrazin-2-yl)oxazolidin-3-yl)-2,4,4a,6-tetrahydro-1H,1′H-spiro[isoxazolo[4,5-g][1,4]oxazino[4,3-a]quinoline-5,5′-pyrimidine]-2′,4′,6′(3′H)-trione], the MIC came out at 0.78 µM (≈ 0.43 µg/mL) in the assay with Staphylococcus aureus (setting [2]); 3.1 µM (≈ 1.71 µg/mL) in the assay on Staphylococcus aureus (setting [3]); 1.6 µM (≈ 0.882 µg/mL) with Staphylococcus aureus (serum, read-out: Sau(f) MIC); 0.78 µM (≈ 0.43 µg/mL) in the assay on Streptococcus pneumoniae (setting [4]); 0.78 µM (≈ 0.43 µg/mL) in the assay with Streptococcus pneumoniae (setting [5]); 0.78 µM (≈ 0.43 µg/mL) with Streptococcus pyogenes. The MIC is 100 µM (≈ 55.1 µg/mL) in the assay on Escherichia coli, below 0.2 µM in the assay on Haemophilus influenzae, above 200 µM in the assay with Klebsiella pneumoniae and above 200 µM in the assay on Pseudomonas aeruginosa. In assay [1], this compound came in with an IC50 of 340 nM.

With `C[C@@H]1CN2c3c(cc4c(N5C(=O)OC[C@@H]5c5cnccn5)noc4c3F)CC3(C(=O)NC(=O)NC3=O)[C@H]2[C@H](C)O1` [Example 62, (2R,4S,4aS)-11-fluoro-2,4-dimethyl-8-((S)-2-oxo-4-(pyrazin-2-yl)oxazolidin-3-yl)-2,4,4a,6-tetrahydro-1H,1′H-spiro[isoxazolo[4,5-g][1,4]oxazino[4,3-a]quinoline-5,5′-pyrimidine]-2′,4′,6′(3′H)-trione], the MIC in the assay on Staphylococcus aureus (setting [2]) was found to be 3.1 µM (≈ 1.71 µg/mL); in the assay on Staphylococcus aureus (setting [3]), 6.2 µM (≈ 3.42 µg/mL); with Staphylococcus aureus (serum, read-out: Sau(f) MIC), 6.2 µM (≈ 3.42 µg/mL); with Streptococcus pneumoniae (setting [4]), 6.2 µM (≈ 3.42 µg/mL); with Streptococcus pneumoniae (setting [5]), 3.1 µM (≈ 1.71 µg/mL); with Streptococcus pyogenes, 3.1 µM (≈ 1.71 µg/mL). Moreover, the MIC with Escherichia coli is above 200 µM; in the assay with Haemophilus influenzae it was 3.1 µM (≈ 1.71 µg/mL); in the assay on Klebsiella pneumoniae, above 200 µM; with Pseudomonas aeruginosa, above 200 µM. For the same compound, the half-inhibitory concentration (IC50) in assay [1] turned out to be 1400 nM.
